# Tests used:
# Type in all cases: cell-based, mouse
# [1] = system: activated CD4+ T-cells; assay: CCL5-induced chemokinesis of activated CD4+ T-cells; conditions: 10 mM; CCL5 50 ng/ml
# Source text: (§1) T-cell isolation, in-vitro activation and subset enrichment: T-cells were isolated from C57BL/6 murine lymph nodes and activated for 3 to 5 days with plate bound anti-CD3 and anti-CD28 antibodies (BioLegend), and IL-2 (PeproTech). CD4+ and CD8+ subsets were enriched with commercially available CD4+ and CD8+ T-cell isolation kits according to the manufacturer's instructions (Easysep, Invitrogen) either prior or post activation according to experimental settings. Chemokinesis assays: Chemokinesis assays were performed in 5 μm transwell inlays. In some experiments, T-cells were pre-treated overnight with a number of drugs purchased from Calbiochem: Rapamycin (200 nM), 2-DG (1 mM), Metformin (2 mM). […] 3×10^6 lymphocytes were seeded in the upper transwell chamber; chemokines were added to the lower chamber: CXCL10 (300 ng/ml), CCL5 (50 ng/ml), CCL19/21 (200 ng/ml of each chemokine). Migrated T-cells were counted with a hemocytometer 2, 4 and 6 hours after seeding and % of migrated cells was calculated.
# [2] = system: CD8+ cytotoxic T-cells; assay: CTL cytotoxicity assay with allogeneic endothelial cells; conditions: 10 mM
# Protocol: CTL differentiation and activity assay: Isolated CD8+ T-cells (balb/c) were incubated with CD3-depleted and mytomycin-C-eradicated allogeneic splenocytes (C57BL/6). […] Dead cells were counted using trypan blue exclusion assay 2, 4, 6 and 18 hours after the start of the assay.
# [3] = system: activated CD4+ T-cells; assay: In vitro chemokinesis of activated CD4+ T-cells towards CXCL10 (transwell); conditions: 10 mM lactic acid or sodium lactate, CXCL10 300 ng/ml
# Source text: as §1
# [4] = system: activated CD8+ T-cells; assay: Glucose uptake and flux with 2-NBDG / 6-NBDG in CD8+ T-cells; conditions: 2-NBDG and 6-NBDG probes
# Protocol: Measurement of lactate, glycolysis, glucose uptake/flux and cell death: Lactate concentration was measured in the synovial fluid or peritoneal lavage using the Lactate assay Kit (Biovision), according to the manufacturer's instructions. Glycolytic metabolism was measured with a Seahorse XF24 Extracellular Flux Analyzer. Briefly, T-cells were grown in high glucose RPMI-1640 supplemented with 10% FCS. […] T-cell viability upon lactate or metabolic drug treatment was assessed by trypan blue exclusion assay.
# [5] = system: activated CD8+ T-cells; assay: In vitro chemokinesis of activated CD8+ T-cells towards CXCL10 (transwell)
# Source text: as §1
smiles,measurement,setting,value
CC(O)C(=O)O (stereo not shown) [lactic-acid],CCL5-induced migration of CD4+ T-cells,[1],not
same,cytolytic activity of CTLs,[2],inhibited
same,CXCL10-induced chemokinesis of activated CD4+ T-cells,[3],not vice versa
same,CXCL10-induced chemokinesis of activated CD4+ T-cells,[3]; listed as lactic acid,not affected
same,glucose uptake and flux through glycolysis in CD8+ T-cells,[4],vice versa
same,CXCL10-induced chemokinesis of activated CD8+ T-cells,"[5]; 10 mM lactic acid or sodium lactate, CXCL10 300 ng/ml",inhibited
same,"chemokinesis of CD8+ T-cells, culture media buffered to neutral pH",[5]; lactic-acid with bicarbonate or HEPES to reach a neutral pH,still impaired

# Source: patent US20190106697A1, “Inhibition Of Lactate Transporters For Use In The Treatment Of Inflammatory Diseases” (Queen Mary University of London, priority 2014, published 2019)
